Data as given in ChEMBL document CHEMBL4138142, “Antibacterial 3,6-Disubstituted 4-Hydroxy-5,6-dihydro-2H-pyran-2-ones from Serratia plymuthica MF371-2” (J Nat Prod, 2017).
Values after ≈ are worked out from the molar mass of the structure shown.

Legend:
Enterococcus faecium = assay: Antibacterial activity against vancomycin-resistant Enterococcus faecium 7 by dilution susceptibility test; assay type: functional
Enterococcus faecalis [1] = assay: Antibacterial activity against vancomycin-resistant Enterococcus faecalis 12 by dilution susceptibility test; assay type: functional
Staphylococcus aureus [2] = assay: Antibacterial activity against methicillin-resistant Staphylococcus aureus LMG 15975 after 16 to 24 hrs by broth microdilution method; assay type: functional
[3] = Cytotoxicity against human HepG2 cells after 48 hrs by XTT assay; assay type: cell-based
Acinetobacter baumannii = assay: Antibacterial activity against Acinetobacter baumannii LMG1041 after 16 to 24 hrs by broth microdilution method; assay type: functional
Staphylococcus aureus [4] = assay: Antibacterial activity against methicillin-resistant Staphylococcus aureus PICI after 16 to 24 hrs by broth microdilution method; assay type: functional
Staphylococcus aureus [5] = assay: Antibacterial activity against methicillin-resistant Staphylococcus aureus MO17 after 16 to 24 hrs by broth microdilution method; assay type: functional
Staphylococcus aureus [6] = assay: Antibacterial activity against Staphylococcus aureus CCUG 1800 after 16 to 24 hrs by broth microdilution method; assay type: functional
Staphylococcus aureus [7] = assay: Antibacterial activity against Staphylococcus aureus LMG 10147 after 16 to 24 hrs by broth microdilution method; assay type: functional
Staphylococcus aureus [8] = assay: Antibacterial activity against mupirocin-resistant Staphylococcus aureus V55 after 16 to 24 hrs by broth microdilution method; assay type: functional
Staphylococcus aureus [9] = assay: Antibacterial activity against mupirocin-resistant Staphylococcus aureus V86 after 16 to 24 hrs by broth microdilution method; assay type: functional
Staphylococcus aureus [10] = assay: Antibacterial activity against mupirocin-resistant Staphylococcus aureus V308 after 16 to 24 hrs by broth microdilution method; assay type: functional
Staphylococcus aureus [11] = assay: Antibacterial activity against mupirocin-resistant Staphylococcus aureus V321 after 16 to 24 hrs by broth microdilution method; assay type: functional
[12] = tested on: Mycolicibacterium frederiksbergense; assay: Antibacterial activity against Mycobacterium frederiksbergense by dilution susceptibility test; assay type: functional
Bacillus cereus = assay: Antibacterial activity against Bacillus cereus CCUG 7414 by dilution susceptibility test; assay type: functional
Staphylococcus aureus [13] = assay: Antibacterial activity against Staphylococcus aureus ATCC 29213 after 16 to 24 hrs by broth microdilution method; assay type: functional
Staphylococcus aureus [14] = assay: Antibacterial activity against methicillin-resistant Staphylococcus aureus 4384 after 16 to 24 hrs by broth microdilution method; assay type: functional
Staphylococcus aureus [15] = assay: Antibacterial activity against tetracycline-resistant Staphylococcus aureus 4216 after 16 to 24 hrs by broth microdilution method; assay type: functional
Staphylococcus aureus [16] = assay: Antibacterial activity against macrolide-resistant Staphylococcus aureus 853E after 16 to 24 hrs by broth microdilution method; assay type: functional
Staphylococcus aureus [17] = assay: Antibacterial activity against macrolide-resistant Staphylococcus aureus 6 Holland after 16 to 24 hrs by broth microdilution method; assay type: functional
Staphylococcus aureus [18] = assay: Antibacterial activity against macrolide-resistant Staphylococcus aureus 56 Japan after 16 to 24 hrs by broth microdilution method; assay type: functional
Staphylococcus aureus [19] = assay: Antibacterial activity against macrolide-resistant Staphylococcus aureus PK2 after 16 to 24 hrs by broth microdilution method; assay type: functional
Staphylococcus aureus [20] = assay: Antibacterial activity against quinolone-resistant Staphylococcus aureus FR 131 after 16 to 24 hrs by broth microdilution method; assay type: functional
[21] = tested on: Staphylococcus epidermidis; assay: Antibacterial activity against methicillin-susceptible Staphylococcus epidermidis RO7 by dilution susceptibility test; assay type: functional
[22] = tested on: Staphylococcus epidermidis; assay: Antibacterial activity against methicillin-resistant Staphylococcus epidermidis TA12 by dilution susceptibility test; assay type: functional
Streptococcus pneumoniae [23] = assay: Antibacterial activity against Streptococcus pneumoniae ATCC 49619 by dilution susceptibility test; assay type: functional
Streptococcus pneumoniae [24] = assay: Antibacterial activity against macrolide-resistant Streptococcus pneumoniae 158bg by dilution susceptibility test; assay type: functional
Streptococcus pneumoniae [25] = assay: Antibacterial activity against macrolide-sensitive Streptococcus pneumoniae SP030 by dilution susceptibility test; assay type: functional
Streptococcus pneumoniae [26] = assay: Antibacterial activity against macrolide-resistant Streptococcus pneumoniae 956 by dilution susceptibility test; assay type: functional
Streptococcus pneumoniae [27] = assay: Antibacterial activity against quinolone-sensitive Streptococcus pneumoniae 19A-TN by dilution susceptibility test; assay type: functional
Streptococcus pneumoniae [28] = assay: Antibacterial activity against quinolone-resistant Streptococcus pneumoniae TE 122-024 by dilution susceptibility test; assay type: functional
Streptococcus pneumoniae [29] = assay: Antibacterial activity against tetracycline-resistant Streptococcus pneumoniae TE 122-026 by dilution susceptibility test; assay type: functional
Streptococcus pneumoniae [30] = assay: Antibacterial activity against macrolide-resistant Streptococcus pneumoniae BAA1407 by dilution susceptibility test; assay type: functional
Streptococcus pyogenes [31] = assay: Antibacterial activity against macrolide-resistant Streptococcus pyogenes 21 Finland by dilution susceptibility test; assay type: functional
Streptococcus pyogenes [32] = assay: Antibacterial activity against macrolide-resistant Streptococcus pyogenes 2 Finland by dilution susceptibility test; assay type: functional
Streptococcus pyogenes [33] = assay: Antibacterial activity against macrolide-sensitive Streptococcus pyogenes 29A-TF by dilution susceptibility test; assay type: functional
Enterococcus faecalis [34] = assay: Antibacterial activity against vancomycin-sensitive Enterococcus faecalis 24 by dilution susceptibility test; assay type: functional
Escherichia coli = assay: Antibacterial activity against Escherichia coli LMG15862 by dilution susceptibility test; assay type: functional
Klebsiella pneumoniae = assay: Antibacterial activity against Klebsiella pneumoniae LMG20218 by dilution susceptibility test; assay type: functional
Pseudomonas aeruginosa = assay: Antibacterial activity against Pseudomonas aeruginosa LMG6395 by dilution susceptibility test; assay type: functional
[35] = Cytotoxicity against human HuH7 cells after 48 hrs by XTT assay; assay type: cell-based, Huh-7
[36] = Cytotoxicity against human MT4 cells after 48 hrs by XTT assay; assay type: cell-based

CN[C@H](CC(C)C)C(=O)N[C@H]1C(=O)N[C@@H](CC(N)=O)C(=O)N[C@H]2C(=O)N[C@H]3C(=O)N[C@H](C(=O)N[C@H](C(=O)O)c4cc(O)cc(O)c4-c4cc3ccc4O)[C@H](O)c3ccc(c(Cl)c3)Oc3cc2cc(c3O[C@@H]2O[C@H](CO)[C@@H](O)[C@H](O)[C@H]2O[C@H]2C[C@](C)(N)[C@H](O)[C@H](C)O2)Oc2ccc(cc2Cl)[C@H]1O [VANCOMYCIN]
MIC (Enterococcus faecium): > 256 µg/mL | MIC (Enterococcus faecalis [1]): > 256 µg/mL

CCCCCCCC[C@@H]1CC(O)=C(C(=O)CCC)C(=O)O1
MIC (Staphylococcus aureus [2]): 0.8 to 1.5 µg/mL (≈ 2.7 to 5.06 µM) | CC50 at 48 h [3]: 30 µg/mL (≈ 101 µM) | MIC (Acinetobacter baumannii): 24 to 32 µg/mL (≈ 81 to 108 µM)

NC[C@H]1O[C@H](O[C@H]2[C@H](O)[C@@H](O[C@H]3O[C@H](CO)[C@@H](O)[C@H](N)[C@H]3O)[C@H](N)C[C@@H]2N)[C@H](N)C[C@@H]1O [TOBRAMYCIN]
MIC (Enterococcus faecium): > 256 µg/mL | MIC (Enterococcus faecalis [1]): > 256 µg/mL

CCCCCCCCC[C@@H]1CC(O)=C(C(=O)CCCCC)C(=O)O1
MIC (Staphylococcus aureus [2]): 0.6 to 0.8 µg/mL (≈ 1.77 to 2.36 µM) | CC50 at 48 h [3]: 15 µg/mL (≈ 44.3 µM) | MIC (Acinetobacter baumannii): 4 to 8 µg/mL (≈ 11.8 to 23.6 µM)

CCCCCCCCC[C@@H]1CC(O)=C(C(=O)CC)C(=O)O1
MIC (Staphylococcus aureus [2]): 0.7 µg/mL (≈ 2.36 µM) | CC50 at 48 h [3]: 50 µg/mL (≈ 169 µM) | MIC (Acinetobacter baumannii): 32 to 48 µg/mL (≈ 108 to 162 µM)

CCCCCCCCCC[C@@H]1CC(O)=C(C(=O)CCC)C(=O)O1
MIC (Staphylococcus aureus [2]): 0.6 to 0.8 µg/mL (≈ 1.85 to 2.47 µM) | CC50 at 48 h [3]: 25 µg/mL (≈ 77.1 µM) | MIC (Acinetobacter baumannii): 8 to 16 µg/mL (≈ 24.7 to 49.3 µM)

CCCC(=O)C1=C(O)C[C@@H](CC)OC1=O
MIC (Staphylococcus aureus [2]): > 50 µg/mL | CC50 at 48 h [3]: > 100 µg/mL | MIC (Acinetobacter baumannii): > 64 µg/mL

GENTAMICIN
MIC (Enterococcus faecium): > 256 µg/mL | MIC (Enterococcus faecalis [1]): > 256 µg/mL

CCCCCCCCC[C@@H]1CC(O)=C(C(=O)CCC)C(=O)O1
MIC (Staphylococcus aureus [4]): 4 µg/mL (≈ 12.9 µM) | MIC (Staphylococcus aureus [5]): 2 µg/mL (≈ 6.44 µM) | MIC (Staphylococcus aureus [2]): 0.8 µg/mL (≈ 2.58 µM) | MIC (Staphylococcus aureus [6]): 0.25 µg/mL (≈ 0.805 µM) | MIC (Staphylococcus aureus [7]): 0.4 µg/mL (≈ 1.29 µM) | MIC (Staphylococcus aureus [8]): ≤ 0.1 µg/mL | MIC (Staphylococcus aureus [9]): 0.1 to 0.25 µg/mL (≈ 0.322 to 0.805 µM) | MIC (Staphylococcus aureus [10]): 0.1 to 0.25 µg/mL (≈ 0.322 to 0.805 µM) | MIC (Staphylococcus aureus [11]): 0.1 to 0.25 µg/mL (≈ 0.322 to 0.805 µM) | MIC [12]: ≤ 0.5 µg/mL | MIC (Bacillus cereus): ≤ 1 µg/mL | MIC (Staphylococcus aureus [13]): 4 µg/mL (≈ 12.9 µM) | MIC (Staphylococcus aureus [14]): 2 µg/mL (≈ 6.44 µM) | MIC (Staphylococcus aureus [15]): 2 µg/mL (≈ 6.44 µM) | MIC (Staphylococcus aureus [16]): 2 µg/mL (≈ 6.44 µM) | MIC (Staphylococcus aureus [17]): 1 µg/mL (≈ 3.22 µM) | MIC (Staphylococcus aureus [18]): 4 µg/mL (≈ 12.9 µM) | MIC (Staphylococcus aureus [19]): 2 µg/mL (≈ 6.44 µM) | MIC (Staphylococcus aureus [20]): 2 µg/mL (≈ 6.44 µM) | MIC [21]: 1 µg/mL (≈ 3.22 µM) | MIC [22]: 2 µg/mL (≈ 6.44 µM) | MIC (Streptococcus pneumoniae [23]): 4 µg/mL (≈ 12.9 µM) | MIC (Streptococcus pneumoniae [24]): 4 µg/mL (≈ 12.9 µM) | MIC (Streptococcus pneumoniae [25]): 8 µg/mL (≈ 25.8 µM) | MIC (Streptococcus pneumoniae [26]): 4 µg/mL (≈ 12.9 µM) | MIC (Streptococcus pneumoniae [27]): 8 µg/mL (≈ 25.8 µM) | MIC (Streptococcus pneumoniae [28]): 8 µg/mL (≈ 25.8 µM) | MIC (Streptococcus pneumoniae [29]): 4 µg/mL (≈ 12.9 µM) | MIC (Streptococcus pneumoniae [30]): 8 µg/mL (≈ 25.8 µM) | MIC (Streptococcus pyogenes [31]): 8 µg/mL (≈ 25.8 µM) | MIC (Streptococcus pyogenes [32]): 8 µg/mL (≈ 25.8 µM) | MIC (Streptococcus pyogenes [33]): 8 µg/mL (≈ 25.8 µM) | MIC (Enterococcus faecium): 2 µg/mL (≈ 6.44 µM) | MIC (Enterococcus faecalis [34]): 2 µg/mL (≈ 6.44 µM) | MIC (Enterococcus faecalis [1]): 2 µg/mL (≈ 6.44 µM) | MIC (Escherichia coli): > 64 µg/mL | MIC (Klebsiella pneumoniae): > 64 µg/mL | MIC (Pseudomonas aeruginosa): > 64 µg/mL | CC50 at 48 h [3]: 33 µg/mL (≈ 106 µM) | CC50 at 48 h [35]: 40 µg/mL (≈ 129 µM) | CC50 at 48 h [36]: 4.7 µg/mL (≈ 15.1 µM) | MIC (Acinetobacter baumannii): 12 to 24 µg/mL (≈ 38.7 to 77.3 µM)

CCCCCCCCC[C@@H]1CC(O)=C(C(=O)CCCC)C(=O)O1
MIC (Staphylococcus aureus [2]): < 0.6 µg/mL | CC50 at 48 h [3]: 36 µg/mL (≈ 111 µM) | MIC (Acinetobacter baumannii): 8 to 16 µg/mL (≈ 24.7 to 49.3 µM)

CCCCCCCCC[C@@H]1CC(O)=C(C(C)=O)C(=O)O1
MIC (Staphylococcus aureus [2]): 1.5 to 2.5 µg/mL (≈ 5.31 to 8.85 µM) | CC50 at 48 h [3]: 71 µg/mL (≈ 251 µM) | MIC (Acinetobacter baumannii): > 64 µg/mL

NC[C@H]1O[C@H](O[C@H]2[C@H](O)[C@@H](O[C@H]3O[C@H](CO)[C@@H](O)[C@H](N)[C@H]3O)[C@H](N)C[C@@H]2N)[C@H](O)[C@@H](O)[C@@H]1O [KANAMYCIN]
MIC (Enterococcus faecium): > 256 µg/mL | MIC (Enterococcus faecalis [1]): > 256 µg/mL

CCCCCCCCCCC[C@@H]1CC(O)=C(C(=O)CCC)C(=O)O1
MIC (Staphylococcus aureus [2]): 0.1 to 0.2 µg/mL (≈ 0.295 to 0.591 µM) | CC50 at 48 h [3]: 19 µg/mL (≈ 56.1 µM) | MIC (Acinetobacter baumannii): < 4 µg/mL

CCCCCCC[C@@H]1CC(O)=C(C(=O)CCC)C(=O)O1
MIC (Staphylococcus aureus [2]): 1 to 2 µg/mL (≈ 3.54 to 7.08 µM) | MIC (Acinetobacter baumannii): > 64 µg/mL
